Test system: 996289-038-R-J1-PDC spheroid viability
Assay: Anticancer human tumor 996289-038-R-J1-PDC patient-derived colon adenocarcinoma cell line growth inhibition [PI3K]
Settings: spheroids with HUVEC and MSC; for viability, T/C: stronger effect = lower value
How it was run: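 Three cell types, namely tumor cells, endothelial cells and mesenchymal stem cells, formed each spheroid. Combinations with four PI3K inhibitors were screened at clinically achievable concentrations decreasing by half-log, and spheroid viability was recorded.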

[1] = curve of first compound, second compound 0.00316 µM
[2] = curve of first compound, second compound 0.01 µM
[3] = curve of first compound, second compound 0.0316 µM
[4] = curve of first compound, second compound 0.1 µM
[5] = curve of first compound, second compound 0.316 µM
[6] = curve of first compound, second compound 1 µM
[7] = second compound 0.00316 µM, first compound 0.0316 µM
[8] = second compound 0.00316 µM, first compound 0.1 µM
[9] = second compound 0.01 µM, first compound 0.0316 µM
[10] = second compound 0.01 µM, first compound 0.1 µM
[11] = second compound 0.0316 µM, first compound 0.0316 µM
[12] = second compound 0.0316 µM, first compound 0.1 µM
[13] = second compound 0.1 µM, first compound 0.0316 µM
[14] = second compound 0.1 µM, first compound 0.1 µM
[15] = second compound 0.316 µM, first compound 0.0316 µM
[16] = second compound 0.316 µM, first compound 0.1 µM
[17] = second compound 1 µM, first compound 0.0316 µM
[18] = second compound 1 µM, first compound 0.1 µM
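Also: spheroids exposed to compounds for seven days before viability read.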
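For viability, T/C in this document: luminescence used as a proxy for viable cell amount; percent viability relative to DMSO vehicle control as 100%.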

Cn1ncnc1[C@H]1c2n[nH]c(=O)c3cc(F)cc(c23)N[C@@H]1c1ccc(F)cc1 + COc1c(OCCCN2CCOCC2)ccc2c3n(c(=NC(=O)c4cnc(N)nc4)nc12)CCN3
IC50 [1]: > 100 nM
IC50 [2]: > 100 nM
IC50 [3]: > 100 nM
IC50 [4]: > 100 nM
IC50 [5]: < 0.316 nM
IC50 [6]: < 0.316 nM
viability, T/C (second compound 0.00316 µM, first compound 0.000316 µM): 110%
viability, T/C (second compound 0.00316 µM, first compound 0.001 µM): 106%
viability, T/C (second compound 0.00316 µM, first compound 0.00316 µM): 102%
viability, T/C (second compound 0.00316 µM, first compound 0.01 µM): 112%
viability, T/C [7]: 103%
viability, T/C [8]: 103%
viability, T/C (second compound 0.01 µM, first compound 0.000316 µM): 97.7%
viability, T/C (second compound 0.01 µM, first compound 0.001 µM): 92.6%
viability, T/C (second compound 0.01 µM, first compound 0.00316 µM): 95.3%
viability, T/C (second compound 0.01 µM, first compound 0.01 µM): 100%
viability, T/C [9]: 97.3%
viability, T/C [10]: 100%
viability, T/C (second compound 0.0316 µM, first compound 0.000316 µM): 87.8%
viability, T/C (second compound 0.0316 µM, first compound 0.001 µM): 91.3%
viability, T/C (second compound 0.0316 µM, first compound 0.00316 µM): 80.3%
viability, T/C (second compound 0.0316 µM, first compound 0.01 µM): 79.4%
viability, T/C [11]: 97.7%
viability, T/C [12]: 70.8%
viability, T/C (second compound 0.1 µM, first compound 0.000316 µM): 69.4%
viability, T/C (second compound 0.1 µM, first compound 0.001 µM): 68.4%
viability, T/C (second compound 0.1 µM, first compound 0.00316 µM): 67.4%
viability, T/C (second compound 0.1 µM, first compound 0.01 µM): 63.3%
viability, T/C [13]: 64.6%
viability, T/C [14]: 48.6%
viability, T/C (second compound 0.316 µM, first compound 0.000316 µM): 41.8%
viability, T/C (second compound 0.316 µM, first compound 0.001 µM): 39.1%
viability, T/C (second compound 0.316 µM, first compound 0.00316 µM): 46.8%
viability, T/C (second compound 0.316 µM, first compound 0.01 µM): 35.3%
viability, T/C [15]: 44.2%
viability, T/C [16]: 43.8%
viability, T/C (second compound 1 µM, first compound 0.000316 µM): 22.6%
viability, T/C (second compound 1 µM, first compound 0.001 µM): 22.6%
viability, T/C (second compound 1 µM, first compound 0.00316 µM): 23.1%
viability, T/C (second compound 1 µM, first compound 0.01 µM): 18.3%
viability, T/C [17]: 25.7%
viability, T/C [18]: 20.8%

Cn1nccc1Nc1nccc(-c2ccn(C(CO)c3ccc(Cl)c(F)c3)c(=O)c2)n1 (stereo unspecified) + COc1c(OCCCN2CCOCC2)ccc2c3n(c(=NC(=O)c4cnc(N)nc4)nc12)CCN3
IC50 [1]: > 10000 nM
IC50 [2]: > 10000 nM
IC50 [3]: 5910 nM
IC50 [4]: 2560 nM
IC50 [5]: < 31.6 nM
IC50 [6]: < 31.6 nM
viability, T/C [7]: 94.8%
viability, T/C [8]: 82.6%
viability, T/C (second compound 0.00316 µM, first compound 0.316 µM): 104%
viability, T/C (second compound 0.00316 µM, first compound 1 µM): 83.6%
viability, T/C (second compound 0.00316 µM, first compound 3.16 µM): 86.4%
viability, T/C (second compound 0.00316 µM, first compound 10 µM): 55.6%
viability, T/C [9]: 95.6%
viability, T/C [10]: 87.5%
viability, T/C (second compound 0.01 µM, first compound 0.316 µM): 91.2%
viability, T/C (second compound 0.01 µM, first compound 1 µM): 93.6%
viability, T/C (second compound 0.01 µM, first compound 3.16 µM): 73.3%
viability, T/C (second compound 0.01 µM, first compound 10 µM): 56.3%
viability, T/C [11]: 100%
viability, T/C [12]: 80.1%
viability, T/C (second compound 0.0316 µM, first compound 0.316 µM): 80%
viability, T/C (second compound 0.0316 µM, first compound 1 µM): 76%
viability, T/C (second compound 0.0316 µM, first compound 3.16 µM): 58%
viability, T/C (second compound 0.0316 µM, first compound 10 µM): 41.2%
viability, T/C [13]: 69.5%
viability, T/C [14]: 62.8%
viability, T/C (second compound 0.1 µM, first compound 0.316 µM): 64.3%
viability, T/C (second compound 0.1 µM, first compound 1 µM): 54%
viability, T/C (second compound 0.1 µM, first compound 3.16 µM): 51.9%
viability, T/C (second compound 0.1 µM, first compound 10 µM): 22.4%
viability, T/C [15]: 44.9%
viability, T/C [16]: 34.7%
viability, T/C (second compound 0.316 µM, first compound 0.316 µM): 35%
viability, T/C (second compound 0.316 µM, first compound 1 µM): 36.4%
viability, T/C (second compound 0.316 µM, first compound 3.16 µM): 27.9%
viability, T/C (second compound 0.316 µM, first compound 10 µM): 18.5%
viability, T/C [17]: 18.8%
viability, T/C [18]: 20.6%
viability, T/C (second compound 1 µM, first compound 0.316 µM): 24%
viability, T/C (second compound 1 µM, first compound 1 µM): 17.7%
viability, T/C (second compound 1 µM, first compound 3.16 µM): 15%
viability, T/C (second compound 1 µM, first compound 10 µM): 9.77%

COc1c(OCCCN2CCOCC2)ccc2c3n(c(=NC(=O)c4cnc(N)nc4)nc12)CCN3
viability, T/C (compound 0.00316 µM): 96.3% [middle of 8 runs]
viability, T/C (compound 0.01 µM): 96.2% [middle of 8 runs]
viability, T/C (compound 0.0316 µM): 76.4% [middle of 8 runs]
viability, T/C (compound 0.1 µM): 61.7% [middle of 8 runs]
viability, T/C (compound 0.316 µM): 36.1% [middle of 8 runs]
viability, T/C (compound 1 µM): 21.6% [middle of 8 runs]
IC50 (compound alone, run of 06/13/2023): 162 nM [middle of 8 runs]
